Measurements: patent US20080226587A1, “METHODS AND COMPOSITIONS FOR IMMUNOMODULATION” (priority 2006, published 2008)

System: DDM-reactive J.RT3/CD8-2 cells
Experiment: T cell stimulation by DDM after proteinase K or pronase treatment
Type: cell-based
Conditions: 4 hours at 40° C.
Excerpt: FIG. 4B is a graph depicting the proliferative response of DDM-reactive J.RT3/CD8-2 cells stimulated in the presence of mock treated DDM, DDM treated with proteinase K, DDM treated with pronase, or no antigen.
The Nex antigen is the second peptidic antigen shown to be presented by CD1. The other one, DDM, is presented by CD1a. Although processing of proteins for presentation on MHC Class I and Class II molecules is well characterized, little is known about processing of CD1-presented peptides. […] DDM has no such cleavage sites for proteases. To examine the protease sensitivity of Nex, Nex and DDM were treated with non-specific proteases and T cell stimulation by each antigen was examined.
Pronase is a mixture of endopeptidases and exopeptidases (carboxypeptidases and aminopeptidases) which digests denatured and native proteins into individual amino acids. Proteinase K is an endopeptidase with a preference for cleavage between an aliphatic, aromatic, or hydrophobic and any other amino acid, however, it will digest any peptidic bond if added in excess and over long incubation periods. […]
To test whether treated Nex mixtures were toxic to T cells, T cell stimulation was measured in the presence of a high concentration (10 μg/ml) of treated Nex and a suboptimal concentration of untreated Nex. […]

didehydroxymycobactin [DDM]
ability to stimulate T cell proliferation after protease treatment: did not diminish
